Source: patent publication EP1263420B1 (priority 2000, dated 2001)
“Also recorded” adds a separate entry of the source.

Experiments:
Lung Tumorigenesis = assay: Lung tumorigenesis inhibition by inhaled isotretinoin in carcinogen-treated A/J mice; type: in vivo; conditions: for reductions of tumor multiplicity (non-significant): low dose; for reductions in multiplicity of tumor nodules: mid isotretinoin dose
Source text: The A/J mouse is a well-established animal model for preclinical chemoprevention studies. This strain has a hereditary predisposition for lung cancer, the so-called pulmonary adenoma susceptibility (Pas) genes. A strong candidate for one of these genes, Pas-1, is the K-ras protooncogene. Carcinogenesis in this model with NNK as the inciting agent has been studied so that the times required to develop hyperplastic areas, adenomas, and carcinomas are well known. In addition, the timing of molecular changes associated with carcinogenesis has been studied and are similar to those in humans. In both species, K-ras mutations are common early events.
Within 24 h of the last inhalation exposure, animals were euthanized by intraperitoneal injection of pentobarbital and their lungs were removed and fixed in Bouin's solution or flash frozen for RAR determination. The lungs were evaluated in a blinded fashion so that neither carcinogen nor isotretinoin dose levels were known to the evaluator, who visually counted hyperplastic areas and adenomas on the lung pleural surface as previously described The significance of the differences between the mean tumor incidence of the treatment and the control groups was determined using the Mann-Whitney Rank Sum test (Statmost TM, DataMost Corp., Sandy, Utah).

[1] = system: urethane-induced lung cancer; conditions: orally administered, over 300 mg/kg weekly; cited from earlier work
liver RARs = assay: Western blot of rat liver samples after inhaled 13-cis RA; type: in vivo
Protocol: Rats (n=97) (Sprague-Dawley from Charles River) were divided into five experimental groups and were given varying amounts of 13-cis RA by inhalation. The experimental groups were as follows (Table 4) :1.Vehicle (10/9 mix of PEG 300 and Ethanol with 0.5% of ascorbic acid and 0.5% phosphatidyl choline) control, day 1: rats (19) inhaled vehicle for 2 hr for one day; 2. High dose 13-cis RA, day 1: rats (22) inhaled a solution containing 13-cis-RA at a concentration of 104µg/liter (projected daily inhaled dose 10mg/kg body weight) for 2 hr for one day; 3. High dose 13-cis RA, day 17: rats (22) inhaled the same solution as in 2 for 2 hr each day for 17 days; 4. Vehicle control, day 28: rats (16) inhaled vehicle as for group 1 for a period of 28 days; 5. Middle dose 13-cis RA, day 28: rats (18) inhaled a solution containing 13-cis-RA at a concentration of 31µg/liter (projected daily inhaled dose 3mg/kg body weight) for 2 hr for each of 28 days.
Male rats (n=23) (Sprague-Dawley from Charles River) were divided into six experimental groups and were given varying amounts of 13-cis RA through an inhalant apparatus once daily for different times each day for 14 days. The experimental groups were as follows (Table 1) :1.Vehicle control : rats (3) inhaled vehicle for 240 minutes; 2. Low dose 13-cis RA: rats (4) inhaled a solution containing 13-cis RA at a concentration of 62.2µg/liter (inhaled dose 115.0µg/kg body weight) in 5 minutes; 3. Low-Middle dose 13-cis RA : rats (4) inhaled a solution containing 13-cis RA at a concentration of 62.2µg/liter (inhaled dose 334.4µg/kg body weight) in 15 minutes; 4.Middle dose 13-cis RA: rats (4) inhaled a solution containing 13-cis RA at a concentration of 62.2µg/liter (inhaled dose 1012.3µg/kg body weight) in 45 minutes; 5. Middle-High dose 13-cis RA : rats (4) inhaled a solution containing 13-cis RA at a concentration of 62.2µg/liter (inhaled dose 2843.4µg/kg body weight) in 120 minutes; 6. High dose 13-cis RA : rats (4) inhaled a solution containing 13-cis RA at a concentration of 62.2µg/liter (inhaled dose 5935.6µg/kg body weight) in 240 minutes. […]

Which “reductions of tumor multiplicity (non-significant)” value (Lung Tumorigenesis; BaP treated mice, p<0.13) does the source give for `CC1=C(/C=C/C(C)=C/C=C/C(C)=C\C(=O)O)C(C)(C)CCC1` [13-cis RA, 13-cis-Retinoic Acid] here?
Its value is 30%.

What about the “reductions of tumor multiplicity (non-significant)” value (Lung Tumorigenesis; NNK treated mice, p<0.30) of the same compound?
The value was 16%.

What about the “effect on numbers of tumors” value (Lung Tumorigenesis; low isotretinoin dose) of the same compound?
Its value is “not affected by treatment at the 95% confidence level; also recorded: not significantly effective”.

And the “reductions in multiplicity of tumor nodules” value (Lung Tumorigenesis; BaP-treated mice)?
The value was 67%.

And the “reductions in multiplicity of tumor nodules” value (Lung Tumorigenesis; NNK-treated mice)?
Its value is 88%.

What about the “prevention of urethane-induced lung cancer” value [1] of the same compound?
Its value is “failed to prevent urethane-induced lung cancer”.

What about the “effect on liver RARs” value (liver RARs; inhaled 13-cis RA, rats, summary statement) of the same compound?
The value was “failed to have any significant effect on liver RARs; also recorded: has no effect on liver RARs”.

And the “increase in liver RARs” value (liver RARs; rat liver, experiment A (same rats as Fig 2A), not shown)?
The value was “failed to show any increase in RARs”.

What about the “response of liver RARs” value (liver RARs; rat liver, experiment B, 5 to 240 minutes daily, 14 days, not shown) of the same compound?
Its value is “not responsive”.
